Reference: article PMC3937006, “Synergism of peptide receptor-targeted Auger electron radiation therapy with anti-angiogenic compounds in a mouse model of neuroendocrine tumors” (EJNMMI Research, 2014)

Key:
[1] = test system: GLP-1 receptor-expressing tumor cells established from pancreatic tumors of Rip1Tag2 mice; format: cell-based, mouse
Description: A nuclei isolation kit (Nuclei EZ Prep Kit, Sigma-Aldrich Chemie Gmbh, Steinheim, Germany) was used to separate and quantify the amount of radioactivity stored in the nuclei. The preparation was done according to the manufacturer's instructions. The GLP-1 receptor-expressing tumor cells were established from pancreatic tumors of Rip1Tag2 mice, as described previously. The cells were seeded at a density of 2 × 10^7 cells in Petri dishes and incubated overnight. Afterward, 25 pmol ^111In-DTPA-exendin-4 (2.5 MBq) was added to the Petri dishes and incubated at 37°C. The internalization was stopped at 2, 4, and 24 h by removing the medium and by washing the cells four times with 5-ml ice-cold phosphate-buffered saline. Ice-cold nuclei EZ lysis buffer (2 ml) was added, and the cells were scraped with a small bladed cell scraper. The cell lysate was transferred to a separate 15-ml centrifuge tube and set on ice for 5 min. To collect the nuclei, the cell lysate was centrifuged three times at 500 g for 5 min at 4°C. The culture medium, the clear supernatant (cytoplasmatic supernatant), and nucleus pellets were measured radiometrically with a γ-counter.

[2] = test system: pancreas, lungs, bowel and kidneys of Rip1Tag2 and C57/Bl6 mice; details: dose of 28 MBq; cited from earlier work
Text: (§1) We have shown in the Rip1Tag2 mouse model of pancreatic neuroendocrine tumors (pNET) that [Lys^40(Ahx-DTPA-^111In)NH2]-exendin-4 is suitable for molecular imaging of NETs using single-photon emission computed tomography (SPECT). pNETs could be detected down to a size of 1 mm in diameter. In a clinical pilot study, we could localize occult insulinomas that were not detectable using conventional imaging methods.

[3] = test system: pancreatic neuroendocrine tumors (pNET) of Rip1Tag2 mice; details: injection of 28 MBq; cited from earlier work
Text: as §1

[4] = test system: pancreatic tumors and other organs of Rip1Tag2 mice; details: mouse, in vivo; cited from earlier work
Text: Thus, the combination with an anti-angiogenic drug that has a different toxicity profile than the radiopeptide reduces the amount of [Lys^40(Ahx-DTPA-^111In)NH2]-exendin-4 and is a more nephroprotective treatment. This is relevant because kidney ...

[5] = test system: CD31-positive blood vessels in tumors of Rip1Tag2 mice; test: Microvessel density, CD31 immunohistochemistry on tumor sections; format: in vivo, mouse; details: for microvessel density, CD31-positive blood vessels (median): Rip1Tag2 mice after 7-day therapy, radiopeptide 1.1 MBq, natIn-exendin-4 40 pmol, kinase inhibitor 100 mg/kg p.o.
[6] = test system: pancreatic tumors and other organs of Rip1Tag2 mice; format: in vivo, mouse
Description: Male and female Rip1Tag2 mice, 19 to 32 g of weight and 11.6 ± 0.7 weeks old, were stratified according to their age and randomly assigned to the different cohorts. […] Both vatalanib and imatinib were provided by Novartis (Basel, Switzerland). Days (0, 3, 5, and 7 days) after the beginning of vatalanib or imatinib treatment, the mice were injected through the tail vein with 185 kBq (10 ng peptide/2 pmol) [Lys^40(Ahx-DTPA-^111In)NH2]-exendin-4 (^111In-DTPA-exendin-4) in a 100-μl 1% human serum albumin solution diluted in 0.9% NaCl. At 4 h after injection, the mice were sacrificed under isoflurane and CO2 anesthesia. The organs, blood, and tumors were collected, weighed, and the radioactivity in these samples was determined using a γ-counter. The percentage of injected activity (IA)/g tissue was calculated for each tissue.

[7] = test system: tumor β-cells of Rip1Tag2 mice; test: Tumor cell apoptosis, TUNEL assay; format: in vivo, mouse; details: Rip1Tag2 mice after 7-day therapy, vatalanib study
[8] = test system: GLP-1R; test: GLP-1 receptor autoradiography of tumors after vatalanib treatment; format: in vivo, mouse; details: Rip1Tag2 mice, vatalanib 100 mg/kg p.o. for 4 days, n = 4; 32 pM [125I]-GLP-1; p = 0.98 vs saline control
Description: GLP-1 receptor autoradiography was used to quantify the GLP-1 receptors in the mouse tumors in the presence or absence of vatalanib treatment. The Rip1Tag2 mice were treated with vatalanib as described before for 4 days and sacrificed on day 5. During necropsy, the tumors were snap frozen on dry ice. Tumor sections (20-μm thick) were incubated for 2 h at ambient temperature in the presence of 32 pM [^125I]-GLP-1 (2,000 Ci/mmol). The incubation solution was 170 mM Tris-HCI buffer (pH 8.2) containing 1% bovine serum albumin, bacitracin (40 μg/ml) and MgCl2 (10 mM) to inhibit endogenous proteases. Non-specific binding was determined by adding 100-nM solution of unlabeled GLP-1. The incubated sections were washed twice for 5 min in cold incubation buffer containing 0.25% bovine serum albumin, then in buffer alone, and dried quickly. Finally, the sections were apposed to Biomax MR films (Kodak, Rochester, NY, USA) and exposed for 1 week in X-ray cassettes.
In all the experiments, the autoradiograms were quantified using a computer-assisted image processing system. Tissue standards for iodinated compounds were used for this purpose.

[9] = test system: pancreatic neuroendocrine tumors (pNET) of Rip1Tag2 mice; test: Therapy study, tumor volume in Rip1Tag2 mice; details: day 8, radiopeptide 1.1 MBq i.v. once, kinase inhibitor 100 mg/kg p.o. daily for 7 days

Compound: [Lys^40(Ahx-DTPA-^111In)NH2]-exendin-4
- internalized activity accumulated in the nucleus [1]: less than 5%
- renal toxicity [2]: significant renal radiation damage and consequent chronic renal failure
- reduction of the tumor mass [3]: 94%
- tumor uptake [4]: 287 ± 62 % IA/g tumor
- microvessel density, CD31-positive blood vessels (median) [5]: 77 /mm^2

Compound: Cc1ccc(NC(=O)c2ccc(CN3CCN(C)CC3)cc2)cc1Nc1nccc(-c2cccnc2)n1 [imatinib]
- effect on tumor-associated vessels ([5]; imatinib 100 mg/kg p.o. for 7 days): no apparent effect
- effect of pre-treatment on uptake of the radiopeptide ([6]; imatinib 100 mg/kg p.o. daily, independent of organ or time point (0, 3, 5, 7 days)): did not affect the uptake

Compound: Clc1ccc(Nc2nnc(Cc3ccncc3)c3ccccc23)cc1 [vatalanib]
- number of apoptotic cells/0.1 mm^2 (median) [7]: 1.7 cells/0.1 mm^2
- microvessel density, CD31-positive blood vessels (median) [5]: 28 /mm^2
- effect on radiopeptide uptake in all the other organs ([6]; vatalanib 100 mg/kg p.o. daily up to 7 days): unaffected
- reduction of radiopeptide uptake in the kidney ([6]; vatalanib 100 mg/kg p.o. daily, within 7 days, p < 0.001): 29.5%
- decrease of specific tumor uptake of radiopeptide ([6]; within the first 5 days of vatalanib treatment): more than 50%
- expression of the GLP-1R on pancreatic tumors by autoradiography [8]: 14,176 ± 5,958 dgm/min
- tumor volume treated/volume control (T/C) ratio [9]: 0.26
